Consider two substances from US20100261246A1, “METHOD FOR INHIBITING TELOMERASE REACTION” (PANASONIC CORPORATION, priority 2009, published 2010).

Holding throughout (type): binding
The subject of one assay is single-stranded DNA. The assay is described as follows: Absorbance 480 to 800 nm of phthalocyanine mixed with single-stranded DNA solution. The following applies: 15 μM compound solution, DNA 50 μM, pH7. The protocol:
A solution of 50 mM HEPES and 100 mM NaCl, pH7 (total volume: 100 μL) containing a single-stranded DNA consisting of a sequence of 5′-[…]-3′ sequence (SEQ ID NO: 3) at a concentration of 50 μM was prepared, which was incubated at 90° C. for 5 min, and thereafter cooled to 0° C. at a rate of temperature fall of 2° C./min, followed by finally incubating at 0° C. for 2 hrs. The DNA in thus resulting solution was a single-stranded DNA even after the incubation (hereafter, the solution referred to as “single-stranded DNA solution”).
(§1) Next, the aforementioned CuPC solution and single-stranded DNA solution, and the aforementioned CuPC solution and double-stranded DNA solution were similarly mixed, respectively. And then the absorbance of these liquid mixtures was measured at 480 to 800 nm. FIG. 9(A) and FIG. 9(B) show the results of the measurement in the cases of the single-stranded DNA solution and the double-stranded DNA solution, respectively.
(§2) Next, the aforementioned NiPC solution and single-stranded DNA solution, and the aforementioned NiPC solution and double-stranded DNA solution were similarly mixed, respectively; the absorbance of these liquid mixtures was measured at 480 to 800 nm. FIG. 11(A) and FIG. 11(B) show the results of the measurement in the cases of the single-stranded DNA solution and the double-stranded DNA solution, respectively. In each drawing, the result obtained when the NC solution was used is also shown together.
(§3) Next, the aforementioned PC solution and single-stranded DNA solution, and the aforementioned PC solution and double-stranded DNA solution were similarly mixed, respectively; the absorbance of these liquid mixture was measured at 480 to 800 nm. FIG. 13(A) and FIG. 13(B) show the results of the measurement in the cases of the single-stranded DNA solution and the double-stranded DNA solution, respectively. In each drawing, the result obtained when the NC solution was used is also shown together.
(§4) Next, the aforementioned CoPC solution and single-stranded DNA solution, and the aforementioned CoPC solution and double-stranded DNA solution were similarly mixed, respectively, and then the absorbance of these liquid mixtures was measured at 480 to 800 nm. FIG. 15(A) and FIG. 15(B) show the results of the measurement in the cases of the single-stranded DNA solution and the double-stranded DNA solution, respectively. In each drawing, the result obtained when the NC solution was used is also shown together.

Assay [1] has as its system G-quadruplex structure (human telomeric oligo DNA). The assay is described as follows: Absorbance 480 to 800 nm of phthalocyanine mixed with G-quadruplex solutions. Conditions: 15 μM compound solution, 50 mM HEPES, 100 mM NaCl, pH7. How it is done: Hereinafter, the interaction between anionic phthalocyanines and various DNAs was studied in Examples 6, 7, 8 and 9. For this purpose, a solution containing a G-quadruplex structure, a solution including a single-stranded DNA, and a solution containing a double-stranded DNA were first prepared according to the following procedures.
A solution of 50 mM HEPES and 100 mM NaCl, pH7 (total volume: 100 μL) containing a single-stranded DNA consisting of a sequence of 5′-[…]-3′ (SEQ ID NO: 2; this sequence being similar to a sequence of a human telomere portion, and thus the DNA referred to as “human telomeric oligo DNA” hereafter) was incubated at 90° C. for 5 min, and thereafter cooled to 0° C. at a rate of temperature fall of 2° C./min, followed by finally incubating at 0° C. for 2 hrs.
The concentrations of the human telomeric oligo DNA contained in the solution were 0, 0.5, 2, 5, 10, 25, 50 and 100 μM.
The absolute values of the positive and negative peaks were maximized for the solution having the human telomeric oligo DNA concentration of 100 μM, and dropped in the order of 50, 25, 10, 5, 2 and 0.5 μM. […] Hereafter, G-quadruplex solutions prepared from the solutions having human telomeric oligo DNA concentrations of 100, 50, 25, 10, 5, 2 and 0.5 μM are referred to as G-quadruplex solutions A, B, C, D, E, F and G, respectively. On the other hand, the solution without the human telomeric oligo DNA contained therein is referred to as NC solution.
First, a solution of 50 mM HEPES and 100 mM NaCl, pH7 (total volume: 20 μL) containing 15 μM CuPC was prepared. Then, this CuPC solution was mixed with each of the G-quadruplex solutions C, D, E and F and the NC solution, and the absorbance of these liquid mixtures were measured at 480 to 800 nm.
First, a solution of 50 mM HEPES and 100 mM NaCl, pH7 (total volume: 20 μL) containing 15 μM NiPC was prepared. Then, this NiPC solution was mixed with each of the G-quadruplex solutions D, E, F and G, and the NC solution, and the absorbance of these liquid mixtures were measured at 480 to 800 nm.
First, a solution of 50 mM HEPES and 100 mM NaCl, pH7 (total volume: 20 μL) containing 15 μM PC was prepared. Then, this PC solution was mixed with each of the G-quadruplex solutions D, E, F and G, and the NC solution, and the absorbance of these liquid mixtures were measured at 480 to 800 nm.
First, a solution of 50 mM HEPES and 100 mM NaCl, pH7 (total volume: 20 μL) containing 15 μM CoPC was prepared. Then, this CoPC solution was mixed with each of the G-quadruplex solutions B, C, D and G, and the NC solution, and the absorbance of these liquid mixtures were measured at 480 to 800 nm.

In a further assay the test system is double-stranded DNA. Put plainly: Absorbance 480 to 800 nm of phthalocyanine mixed with double-stranded DNA solution. Conditions: 15 μM compound solution, DNA 50 μM, pH7. The protocol:
A solution of 50 mM HEPES and 100 mM NaCl, pH7 (total volume: 100 μL) containing a single-stranded DNA consisting of a sequence of 5′-AGAAGAGAAAGA-3′ (SEQ ID NO: 4) and a single-stranded DNA consisting of a sequence of 5′-TCTTTCTCTTCT-3′ (SEQ ID NO: 5) at each concentration of 50 μM was prepared, which was incubated at 90° C. for 5 min, and thereafter cooled to 0° C. at a rate of temperature fall of 2° C./min, followed by finally incubating at 0° C. for 2 hrs. Since the aforementioned two kinds of DNAs are complementary to one another, both DNAs form a double-stranded DNA in the solution as a result of the incubation (hereafter, the solution referred to as “double-stranded DNA solution”).
as §1, §2, §3, §4

On to “Copper(II) phthalocyanine-3,4′,4″,4′″-tetrasulfonic acid tetrasodium salt [CuPC]”, for which, in the assay with single-stranded DNA, the “interaction with the single-stranded DNA (absorption spectrum vs NC solution)” value was “an interaction did not occur”. In addition, the “interaction with the G-quadruplex structure (absorption peak)” value in assay [1] was “an interaction occurred”. In the assay with double-stranded DNA, the “interaction with the double-stranded DNA (absorption spectrum vs NC solution)” value is “an interaction did not occur”.

“Nickel(II) phthalocyanine tetrasulfonic acid tetrasodium salt [NiPC]”: the “interaction with the single-stranded DNA (absorption spectrum vs NC solution)” value in the assay on single-stranded DNA is “an interaction did not occur”. Further, the “interaction with the G-quadruplex structure (absorption peak)” value in assay [1] is listed as “an interaction occurred”. Besides, in the assay on double-stranded DNA, the “interaction with the double-stranded DNA (absorption spectrum vs NC solution)” value was “an interaction did not occur”.
